Read-outs that look alike come from different tables or passages of the source.
Test system: eNOS promoter
Test: Activation of eNOS transcription (eNOS promoter-luciferase reporter gene assay)
Assay type: cell-based, human
Details: for maximal fold induction: read-out: TIR (max)
Protocol: Measurement of activation of eNOS transcription Activation of eNOS transcription was measured as described in detail in Li et al. “Activation of protein kinase C alpha and/or epsilon enhances transcription of the human endothelial nitric oxide synthase gene”, Mol. Pharmacol. 1998; 53: 630-637. Briefly, a 3.5 kB long fragment 5′ of the starting codon of the eNOS gene was cloned, sequenced and cloned in firefly luciferase expression plasmids to monitor activation of the eNOS promoter by reporter gene activity. A human endothelial cell line stable transfected and expressing this promoter-reporter construct was used for compound testing. Cells were incubated for 18 h with compounds. All compounds were dissolved in sterile DMSO. A final concentration of 0.5% DMSO in complete medium was allowed. Induction of reporter gene expression in these cells was measured using a standard luciferase assay system (Promega, Cat. No E150) according to the manufacturer's instructions. Luciferase induction in cells incubated with compounds were compared to those incubated with solvent alone. The ratio of both activities (transcription induction ratio, TIR) was plotted as a function of compound concentration. […] EC50 values of transcription induction ratios as a function of compound concentration were determined graphically.

[1] = Homo sapiens, 18 h, maximum transcription induction ratio (luciferase with compound / solvent alone), 18 h incubation
[2] = Homo sapiens, Endothelial cell, 18 h, EC50 of transcription induction ratio, determined graphically, human endothelial cell line, 18 h incubation, read-out: EC-50
[3] = EC50 of transcription induction ratio, determined graphically, human endothelial cell line, 18 h incubation, read-out: EC-50
[4] = maximum transcription induction ratio (luciferase with compound / solvent alone), 18 h incubation

Cc1c(C(=O)NC2Cc3ccccc3C2)cccc1C(F)(F)F [Compound 361, N-INDAN-2-YL-2-METHYL-3-TRIFLUOROMETHYL-BENZAMIDE]
maximal fold induction [1]: 2.5 | EC50 [2]: 21 µM

COc1ccc(C(=O)NC2Cc3ccccc3C2)cc1Cl [Compound 31, 3-CHLORO-4-METHOXY-N-INDAN-2-YL-BENZAMIDE]
maximal fold induction [1]: 3.05 | EC50 [2]: 6 µM

Cc1c(Cl)cccc1C(=O)NC1Cc2ccccc2C1 [Compound 257, 3-CHLORO-N-INDAN-2-YL-2-METHYL-BENZAMIDE]
maximal fold induction [1]: 2.7 | EC50 [2]: 4.3 µM

Cc1csc(C(=O)NC2Cc3ccccc3C2)c1Cl [Compound 342, 3-CHLORO-4-METHYL-THIOPHENE-2-CARBOXYLIC ACID INDAN-2-YLAMIDE]
maximal fold induction [1]: 3 | EC50 [2]: 0.287 µM

O=C(NC1Cc2ccccc2C1)c1cccc(F)c1F [Compound 302, 2,3-DIFLUORO-N-INDAN-2-YL-BENZAMIDE]
maximal fold induction [1]: 2.8 | EC50 [2]: 27 µM

O=C(NC1Cc2cccc(Br)c2C1)c1ccc(F)cc1 (single isomer, unassigned) [Compound 396A, N-(4-BROMO-INDAN-2-YL)-4-FLUORO-BENZAMIDE]
maximal fold induction [1]: 3.55 | EC50 [2]: 0.6 µM

CCCCCc1ccc(C(=O)NC2Cc3ccccc3C2)cc1 [Compound 293, N-INDAN-2-YL-4-PENTYL-BENZAMIDE]
maximal fold induction [1]: 1.7 | EC50 [2]: 14 µM

O=C(NC1Cc2ccccc2C1)c1cc2cc(Cl)ccc2[nH]1 [Compound 315, 5-CHLORO-1H-INDOLE-2-CARBOXYLIC ACID INDAN-2-YLAMIDE]
maximal fold induction [1]: 2.2 | EC50 [2]: 16 µM

Cc1cc(C(=O)NC2Cc3ccccc3C2)ccc1Cl [Compound 27, 4-CHLORO-3-METHYL-N-INDAN-2-YL-BENZAMIDE]
maximal fold induction [1]: 3.6 | EC50 [2]: 0.2 µM

Cc1ccc2c(Cl)c(C(=O)NC3Cc4ccccc4C3)sc2c1 [Compound 332, 3-CHLORO-6-METHYL-BENZO[B]THIOPHENE-2-CARBOXYLIC ACID INDAN-2-YLAMIDE]
maximal fold induction [1]: 2 | EC50 [2]: 4 µM

Nc1nccnc1C(=O)NC1Cc2ccccc2C1 [Compound 185, 3-AMINO-PYRAZINE-2-CARBOXYLIC ACID INDAN-2-YLAMIDE]
maximal fold induction [1]: 2.4 | EC50 [2]: 27 µM

O=C(NC1Cc2ccccc2C1)c1ccc(F)c(F)c1F [Compound 320, 2,3,4-TRIFLUORO-N-INDAN-2-YL-BENZAMIDE]
maximal fold induction [1]: 3 | EC50 [2]: 12 µM

O=C(NC1Cc2ccccc2C1)c1cc(F)c(Cl)cc1Cl [Compound 262, 2,4-DICHLORO-5-FLUORO-N-INDAN-2-YL-BENZAMIDE]
maximal fold induction [1]: 2.8 | EC50 [2]: 5.8 µM

O=C(NC1Cc2ccccc2C1)c1sc2cc(F)ccc2c1Cl [Compound 324, 3-CHLORO-6-FLUORO-BENZO[B]THIOPHENE-2-CARBOXYLIC ACID INDAN-2-YLAMIDE]
maximal fold induction [1]: 1.7 | EC50 [2]: 2.1 µM

O=C(NC1Cc2ccccc2C1)c1ccc(C(=O)C(F)(F)F)cc1 [Compound 256, N-INDAN-2-YL-4-(2,2,2-TRIFLUORO-ACETYL)-BENZAMIDE]
maximal fold induction [1]: 2.5 | EC50 [2]: 11 µM

O=C(NC1Cc2ccccc2C1)c1ccc(Cl)cc1Br [Compound 331, 2-BROMO-4-CHLORO-N-INDAN-2-YL-BENZAMIDE]
maximal fold induction [1]: 2.8 | EC50 [2]: 0.147 µM

O=C(NC1Cc2ccccc2C1)c1ccccc1Br [Compound 272, 2-BROMO-N-INDAN-2-YL-BENZAMIDE]
maximal fold induction [1]: 2.9 | EC50 [2]: 1.6 µM

Cc1ccc(C(=O)NC2Cc3ccccc3C2)cc1Cl [Compound 34, 3-CHLORO-4-METHYL-N-INDAN-2-YL-BENZAMIDE]
maximal fold induction [1]: 3.4 | EC50 [2]: 1.7 µM

O=C(NC1Cc2ccccc2C1)c1ccc(-c2cccnc2)cc1 [Compound 435, N-INDAN-2-YL-4-PYRIDIN-3-YL-BENZAMIDE]
maximal fold induction [1]: 2.5 | EC50 [2]: 14 µM

CCOc1cccc(C(=O)NC2Cc3ccccc3C2)c1 [Compound 306, 3-ETHOXY-N-INDAN-2-YL-BENZAMIDE]
maximal fold induction [1]: 2.7 | EC50 [2]: 0.263 µM

O=C(NC1Cc2ccccc2C1)c1cccc(Br)c1 [Compound 382, 3-BROMO-N-INDAN-2-YL-BENZAMIDE]
maximal fold induction [1]: 2.5 | EC50 [2]: 21 µM

Cc1cc(Br)c(C(=O)NC2Cc3ccccc3C2)s1 [Compound 364, 3-BROMO-5-METHYL-THIOPHENE-2-CARBOXYLIC ACID INDAN-2-YLAMIDE]
maximal fold induction [1]: 2.9 | EC50 [2]: 2.1 µM

O=C(NC1Cc2ccccc2C1)c1c(F)cccc1Br [Compound 358, 2-BROMO-6-FLUORO-N-INDAN-2-YL-BENZAMIDE]
maximal fold induction [1]: 2.5 | EC50 [2]: 4.7 µM

CCCC(=O)Nc1cccc(C(=O)NC2Cc3ccccc3C2)c1 [Compound 375, 3-BUTYRYLAMINO-N-INDAN-2-YL-BENZAMIDE]
maximal fold induction [1]: 2.3 | EC50 [2]: 8 µM

Cc1cc(C(=O)NC2Cc3ccccc3C2)c(C)[nH]1 [Compound 216, 2,5-DIMETHYL-1H-PYRROLE-3-CARBOXYLIC ACID INDAN-2-YLAMIDE]
maximal fold induction [1]: 2.8 | EC50 [2]: 0.7 µM

CS(=O)(=O)c1ccc(C(=O)NC2Cc3ccccc3C2)c(Cl)c1 [Compound 312, 2-CHLORO-N-INDAN-2-YL-4-METHANESULFONYL-BENZAMIDE]
maximal fold induction [1]: 2.2 | EC50 [2]: 16 µM

O=C(NC1Cc2ccccc2C1)c1c(F)ccc(F)c1F [Compound 274, 2,3,6-TRIFLUORO-N-INDAN-2-YL-BENZAMIDE]
EC50 [2]: 21 µM

O=C(NC1Cc2ccccc2C1)c1ccc(Cl)c(Cl)c1 [Compound 314, 3,4-DICHLORO-N-INDAN-2-YL-BENZAMIDE]
maximal fold induction [1]: 2.2 | EC50 [2]: 12 µM

CC(C)S(=O)(=O)c1csc(C(=O)NC2Cc3ccccc3C2)c1Cl [Compound 265, 3-CHLORO-4-(PROPANE-2-SULFONYL)-THIOPHENE-2-CARBOXYLIC ACID INDAN-2-YLAMIDE]
maximal fold induction [1]: 2.7 | EC50 [2]: 0.183 µM

O=C(NC1Cc2cccc(C=CC(=O)N3CCOCC3)c2C1)c1ccc(F)cc1 (centres unmarked) [Compound 412, 4-FLUORO-N-[4-(3-MORPHOLIN-4-YL-3-OXO-PROPENYL)-NDAN-2-YL]-BENZAMIDE]
EC50 [3]: 1 µM | TIR (max) [4]: 2.5

CCc1sccc1C(=O)NC1Cc2ccccc2C1 [Compound 366, 2-ETHYL-THIOPHENE-3-CARBOXYLIC ACID INDAN-2-YLAMIDE]
maximal fold induction [1]: 2.5 | EC50 [2]: 37 µM

CCNc1ccc(C(=O)NC2Cc3ccccc3C2)cc1 [Compound 268, 4-ETHYLAMINO-N-INDAN-2-YL-BENZAMIDE]
maximal fold induction [1]: 3 | EC50 [2]: 0.485 µM

O=C(NC1Cc2ccccc2C1)c1ccc(Br)s1 [Compound 41, 5-BROMO-THIOPHEN-2-CARBOXYLIC ACID-INDAN-2-YLAMIDE]
maximal fold induction [1]: 2.4 | EC50 [2]: 0.18 µM

CCOc1ccc(C(=O)NC2Cc3ccccc3C2)cc1 [Compound 26, 4-ETHOXY-N-INDAN-2-YL-BENZAMIDE]
maximal fold induction [1]: 3.8 | EC50 [2]: 0.9 µM

Cc1cccc2c1CC(NC(=O)c1ccc(F)cc1)C2 (single isomer, unassigned; (+)) [Compound 1b, (+)-4-Fluoro-N-(4-methyl-indan-2-yl)-benzamide]
EC50 [3]: 0.2 µM | TIR (max) [4]: 3.00

O=C(NC1Cc2ccccc2C1)c1cccc(F)c1 [Compound 24, 3-FLUORO-N-INDAN-2-YL-BENZAMIDE]
maximal fold induction [1]: 2.88 | EC50 [2]: 2.5 µM

Cc1cccc(C(=O)NC2Cc3ccccc3C2)c1Cl [Compound 264, 2-CHLORO-N-INDAN-2-YL-3-METHYL-BENZAMIDE]
maximal fold induction [1]: 2.9 | EC50 [2]: 0.58 µM

O=C(C=Cc1cccc2c1CC(NC(=O)c1ccc(F)cc1)C2)Nc1ccc(Cl)cc1 (centres unmarked) [Compound 413, N-{4-[2-(4-CHLORO-PHENYLCARBAMOYL)-VINYL]-INDAN-2-YL}-4-FLUORO-BENZAMIDE]
maximal fold induction [1]: 2.5 | EC50 [2]: 8.5 µM

O=C(NC1Cc2ccccc2C1)c1ccc(Cl)cc1Cl [Compound 277, 2,4-DICHLORO-N-INDAN-2-YL-BENZAMIDE]
maximal fold induction [1]: 3 | EC50 [2]: 4.1 µM

O=C(NC1Cc2ccccc2C1)c1ccc(-c2ccccn2)cc1 [Compound 436, N-INDAN-2-YL-4-PYRIDIN-2-YL-BENZAMIDE]
maximal fold induction [1]: 2.6 | EC50 [2]: 18 µM

O=C(NC1Cc2ccccc2C1)c1cccc(Cl)c1 [Compound 283, 3-CHLORO-N-INDAN-2-YL-BENZAMIDE]
maximal fold induction [1]: 2.5 | EC50 [2]: 15 µM

O=C(NC1Cc2ccccc2C1)c1ccccc1F [Compound 273, 2-FLUORO-N-INDAN-2-YL-BENZAMIDE]
maximal fold induction [1]: 2.8 | EC50 [2]: 2.6 µM

Cc1cc(C)c(C(=O)NC2Cc3ccccc3C2)c(N)n1 [Compound 187, 2-AMINO-N-INDAN-2-YL-4,6-DIMETRYL-NICOTINAMIDE]
EC50 [3]: 4.4 µM | TIR (max) [4]: 2.5

CC(=O)Oc1cc(C)ccc1C(=O)NC1Cc2ccccc2C1 [Compound 7, ACETIC ACID 2-(INDAN-2-YL-CARBAMOYL)-5-METHYL-PHENYLESTER]
maximal fold induction (Homo sapiens, 18 h): 2.57 | EC50 (Homo sapiens, Endothelial cell, 18 h): 0.1 µM

Nc1c(C(=O)NC2Cc3ccccc3C2)cnn1-c1ccccc1 [Compound 427, 5-AMINO-1-PHENYL-1H-PYRAZOLE-4-CARBOXYLIC ACID INDAN-2-YLAMIDE]
maximal fold induction [1]: 2.5 | EC50 [2]: 3.7 µM

Reference: patent US7713963B2, “Acylated indanyl amines and their use as pharmaceuticals” (sanofi-aventis Deutschland GmbH, priority 2001, dated 2010)
